# From patent publication US20110082130A1 (LIGAND PHARMACEUTICALS, INC., priority 2006, published 2011)
# Biological target: T1, chimeric human H3 receptor (Homo sapiens, UniProt Q9Y5N1)
# T1 construct: made in house; host or cells: Sf9 insect cells (baculovirus); P2 membrane preparation
# Experiment: Chimeric human H3 receptor GTP binding assay (agonist-stimulated GTP-gamma35S binding, Example 7)
# Type: biochemical
# Settings: assay of Example 7; "*" in Ki of Table II
# In short: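 Sf9 membranes co-expressing chimeric human H3 receptor and heterotrimeric G-protein, 35 μg/tube, in pH 7.4 Tris buffer with 10 μM GDP. Test compounds (10^−10–10^−6 M) competed against 1 μM histamine, […] GTP-gamma35S, 60 min at room temperature. Filter-bound radioactivity counted; IC50 converted to Ki by Cheng-Prusoff. Agonism/inverse agonism tested without histamine (EC50).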
# T1 sequence (Q9Y5N1 with tags, fused parts or gaps): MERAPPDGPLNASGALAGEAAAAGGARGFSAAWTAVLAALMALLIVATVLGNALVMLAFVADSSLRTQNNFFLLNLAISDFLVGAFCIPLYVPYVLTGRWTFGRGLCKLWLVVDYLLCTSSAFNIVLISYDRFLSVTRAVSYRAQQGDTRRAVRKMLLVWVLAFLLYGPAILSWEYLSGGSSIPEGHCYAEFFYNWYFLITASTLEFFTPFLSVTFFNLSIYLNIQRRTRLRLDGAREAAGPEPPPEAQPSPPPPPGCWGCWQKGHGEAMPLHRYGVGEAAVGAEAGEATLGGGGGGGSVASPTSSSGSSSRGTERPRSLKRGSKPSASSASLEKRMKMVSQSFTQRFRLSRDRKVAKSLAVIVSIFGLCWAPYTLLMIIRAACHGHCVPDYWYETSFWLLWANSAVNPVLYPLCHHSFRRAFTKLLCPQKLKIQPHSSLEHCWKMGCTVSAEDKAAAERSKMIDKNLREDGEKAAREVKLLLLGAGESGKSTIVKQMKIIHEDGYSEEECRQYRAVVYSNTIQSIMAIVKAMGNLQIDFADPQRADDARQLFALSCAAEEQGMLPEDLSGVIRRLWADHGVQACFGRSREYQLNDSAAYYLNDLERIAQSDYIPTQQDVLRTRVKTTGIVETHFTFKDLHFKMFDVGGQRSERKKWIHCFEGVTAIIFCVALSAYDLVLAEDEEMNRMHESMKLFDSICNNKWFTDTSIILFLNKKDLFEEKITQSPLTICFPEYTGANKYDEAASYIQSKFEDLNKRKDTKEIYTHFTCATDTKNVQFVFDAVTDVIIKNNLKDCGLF
row,Ki [nM],Compound
1,< 1000,"O=C(CN1CCc2nc(-c3cc(F)ccc3F)sc2C1)N1CCN(C2CCC2)CC1 [Compound 347, 5-[2-(4-cyclobutylpiperazin-1-yl)-2-oxoethyl]-2-(2,5-difluorophenyl)-4,5,6,7-tetrahydro[1,3]thiazolo [5,4-c]pyridine]"
2,< 1000,"O=C(CN1CCc2nc(-c3ccc(F)cc3F)sc2C1)N1CCN(C2CCC2)CC1 [Compound 348, 5-[2-(4-cyclobutylpiperazin-1-yl)-2-oxoethyl]-2-(2,4-difluorophenyl)-4,5,6,7-tetrahydro[1,3]thiazolo [5,4-c]pyridine]"
3,< 1000,"O=C(CN1CCc2nc(-c3ccc(F)c(F)c3)sc2C1)N1CCN(C2CCC2)CC1 [Compound 349, 5-[2-(4-cyclobutylpiperazin-1-yl)-2-oxoethyl]-2-(3,4-difluorophenyl)-4,5,6,7-tetrahydro[1,3]thiazolo [5,4-c]pyridine]"
4,< 1000,"O=C(CN1CCc2nc(-c3cc(Cl)cc(Cl)c3)sc2C1)N1CCN(C2CCC2)CC1 [Compound 350, 5-[2-(4-cyclobutylpiperazin-1-yl)-2-oxoethyl]-2-(3,5-dichlorophenyl)-4,5,6,7-tetrahydro[1,3]thiazolo [5,4-c]pyridine]"
5,< 1000,"O=C(CN1CCc2nc(-c3ccc(Cl)cc3F)sc2C1)N1CCN(C2CCC2)CC1 [Compound 351, 2-(4-chloro-2-fluorophenyl)-5-[2-(4-cyclobutylpiperazin-1-yl)-2-oxoethyl]-4,5,6,7-tetrahydro[1,3]thiazolo [5,4-c]pyridine]"
6,< 1000,"O=C(CN1CCc2nc(-c3ccc(Cl)c(F)c3)sc2C1)N1CCN(C2CCC2)CC1 [Compound 352, 2-(4-chloro-3-fluorophenyl)-5-[2-(4-cyclobutylpiperazin-1-yl)-2-oxoethyl]-4,5,6,7-tetrahydro[1,3]thiazolo [5,4-c]pyridine]"
7,< 1000,"O=C(CN1CCc2nc(-c3c(F)cccc3F)sc2C1)N1CCN(C2CCC2)CC1 [Compound 353, 5-[2-(4-cyclobutylpiperazin-1-yl)-2-oxoethyl]-2-(2,6-difluorophenyl)-4,5,6,7-tetrahydro[1,3]thiazolo [5,4-c]pyridine]"
8,< 1000,"O=C(CN1CCc2nc(-c3ccc(Cl)c(Cl)c3)sc2C1)N1CCN(C2CCC2)CC1 [Compound 354, 5-[2-(4-cyclobutylpiperazin-1-yl)-2-oxoethyl]-2-(3,4-dichlorophenyl)-4,5,6,7-tetrahydro[1,3]thiazolo [5,4-c]pyridine]"
9,< 1000,"O=C(CN1CCc2nc(-c3cc(F)cc(F)c3)sc2C1)N1CCN(C2CCC2)CC1 [Compound 355, 5-[2-(4-cyclobutylpiperazin-1-yl)-2-oxoethyl]-2-(3,5-difluorophenyl)-4,5,6,7-tetrahydro[1,3]thiazolo [5,4-c]pyridine]"
10,< 1000,"O=C(CN1CCc2nc(-c3cccc(F)c3F)sc2C1)N1CCN(C2CCC2)CC1 [Compound 356, 5-[2-(4-cyclobutylpiperazin-1-yl)-2-oxoethyl]-2-(2,3-difluorophenyl)-4,5,6,7-tetrahydro[1,3]thiazolo [5,4-c]pyridine]"
11,< 1000,"O=C(CN1CCc2nc(-c3ccccc3Cl)sc2C1)N1CCN(C2CCC2)CC1 [Compound 357, 2-(2-chlorophenyl)-5-[2-(4-cyclobutylpiperazin-1-yl)-2-oxoethyl]-4,5,6,7-tetrahydro[1,3]thiazolo [5,4-c]pyridine]"
12,< 1000,"O=C(CN1CCc2nc(-c3cccc(Cl)c3Cl)sc2C1)N1CCN(C2CCC2)CC1 [Compound 358, 5-[2-(4-cyclobutylpiperazin-1-yl)-2-oxoethyl]-2-(2,3-dichlorophenyl)-4,5,6,7-tetrahydro[1,3]thiazolo [5,4-c]pyridine]"
13,< 1000,"O=C(CN1CCc2nc(-c3ccc(Cl)cc3Cl)sc2C1)N1CCN(C2CCC2)CC1 [Compound 359, 5-[2-(4-cyclobutylpiperazin-1-yl)-2-oxoethyl]-2-(2,4-dichlorophenyl)-4,5,6,7-tetrahydro[1,3]thiazolo [5,4-c]pyridine]"
14,< 1000,"O=C(CN1CCc2nc(-c3ccccc3C(F)(F)F)sc2C1)N1CCN(C2CCC2)CC1 [Compound 360, 5-[2-(4-cyclobutylpiperazin-1-yl)-2-oxoethyl]-2-[2-(trifluoromethyl)phenyl]-4,5,6,7-tetrahydro[1,3]thiazolo [5,4-c]pyridine]"
15,< 1000,"COc1cccc(OC)c1-c1nc2c(s1)CN(CC(=O)N1CCN(C3CCC3)CC1)CC2 [Compound 361, 5-[2-(4-cyclobutylpiperazin-1-yl)-2-oxoethyl]-2-(2,6-dimethoxyphenyl)-4,5,6,7-tetrahydro[1,3]thiazolo [5,4-c]pyridine]"
16,< 1000,"CC(C)c1ccccc1-c1nc2c(s1)CN(CC(=O)N1CCN(C3CCC3)CC1)CC2 [Compound 362, 5-[2-(4-cyclobutylpiperazin-1-yl)-2-oxoethyl]-2-(2-isopropylphenyl)-4,5,6,7-tetrahydro[1,3]thiazolo [5,4-c]pyridine]"

row,Ki [nM],Compound
1,< 1000,"Cc1cccc(C)c1-c1nc2c(s1)CN(CC(=O)N1CCN(C3CCC3)CC1)CC2 [Compound 363, 5-[2-(4-cyclobutylpiperazin-1-yl)-2-oxoethyl]-2-(2,6-dimethylphenyl)-4,5,6,7-tetrahydro[1,3]thiazolo [5,4-c]pyridine]"
2,< 1000,"O=C(CN1CCc2nc(-c3cc(Cl)ccc3Cl)sc2C1)N1CCN(C2CCC2)CC1 [Compound 364, 5-[2-(4-cyclobutylpiperazin-1-yl)-2-oxoethyl]-2-(2,5-dichlorophenyl)-4,5,6,7-tetrahydro[1,3]thiazolo [5,4-c]pyridine]"
3,< 1000,"Cc1ccc(F)c(-c2nc3c(s2)CN(CC(=O)N2CCN(C4CCC4)CC2)CC3)c1Cl [Compound 365, 2-(2-chloro-6-fluoro-3-methylphenyl)-5-[2-(4-cyclobutylpiperazin-1-yl)-2-oxoethyl]-4,5,6,7-tetrahydro[1,3]thiazolo [5,4-c]pyridine]"
4,< 1000,"Cc1cc(C)c(-c2nc3c(s2)CN(CC(=O)N2CCN(C4CCC4)CC2)CC3)c(C)c1 [Compound 366, 5-[2-(4-cyclobutylpiperazin-1-yl)-2-oxoethyl]-2-mesityl-4,5,6,7-tetrahydro[1,3]thiazolo [5,4-c]pyridine]"
5,< 1000,"N#Cc1cccc(-c2nc3c(s2)CN(CC(=O)N2CCN(C4CCC4)CC2)CC3)c1 [Compound 367, 3-{5-[2-(4-cyclobutylpiperazin-1-yl)-2-oxoethyl]-4,5,6,7-tetrahydro[1,3]thiazolo [5,4-c]pyridin-2-yl}benzonitrile]"
6,< 1000,"N#Cc1ccc(-c2nc3c(s2)CN(CC(=O)N2CCN(C4CCC4)CC2)CC3)cc1 [Compound 368, 4-{5-[2-(4-cyclobutylpiperazin-1-yl)-2-oxoethyl]-4,5,6,7-tetrahydro[1,3]thiazolo [5,4-c]pyridin-2-yl}benzonitrile]"
7,< 1000,"O=C(CN1CCc2nc(-c3ccc(C(F)(F)F)cc3)sc2C1)N1CCN(C2CCC2)CC1 [Compound 369, 5-[2-(4-cyclobutylpiperazin-1-yl)-2-oxoethyl]-2-[4-(trifluoromethyl)phenyl]-4,5,6,7-tetrahydro[1,3]thiazolo [5,4-c]pyridine]"
8,< 1000,"CC(=O)c1cccc(-c2nc3c(s2)CN(CC(=O)N2CCN(C4CCC4)CC2)CC3)c1 [Compound 370, 1-(3-{5-[2-(4-cyclobutylpiperazin-1-yl)-2-oxoethyl]-4,5,6,7-tetrahydro[1,3]thiazolo [5,4-c]pyridin-2-yl}phenyl)ethanone]"
9,< 1000,"O=C(CN1CCc2nc(-c3cc(C(F)(F)F)cc(C(F)(F)F)c3)sc2C1)N1CCN(C2CCC2)CC1 [Compound 371, 2-[3,5-bis(trifluoromethyl)phenyl]-5-[2-(4-cyclobutylpiperazin-1-yl)-2-oxoethyl]-4,5,6,7-tetrahydro[1,3]thiazolo [5,4-c]pyridine]"
10,< 1000,"O=C(CN1CCc2nc(-c3cccc(C(F)(F)F)c3)sc2C1)N1CCN(C2CCC2)CC1 [Compound 372, 5-[2-(4-cyclobutylpiperazin-1-yl)-2-oxoethyl]-2-[3-(trifluoromethyl)phenyl]-4,5,6,7-tetrahydro[1,3]thiazolo [5,4-c]pyridine]"
11,< 1000,"O=C(CN1CCc2nc(-c3ccc(Cl)c(C(F)(F)F)c3)sc2C1)N1CCN(C2CCC2)CC1 [Compound 373, 2-[4-chloro-3-(trifluoromethyl)phenyl]-5-[2-(4-cyclobutylpiperazin-1-yl)-2-oxoethyl]-4,5,6,7-tetrahydro[1,3]thiazolo [5,4-c]pyridine]"
12,< 1000,"O=C(CN1CCc2nc(-c3cc(C(F)(F)F)ccc3Cl)sc2C1)N1CCN(C2CCC2)CC1 [Compound 374, 2-[2-chloro-5-(trifluoromethyl)phenyl]-5-[2-(4-cyclobutylpiperazin-1-yl)-2-oxoethyl]-4,5,6,7-tetrahydro[1,3]thiazolo [5,4-c]pyridine]"
13,< 1000,"CCOC(=O)c1ccc(-c2nc3c(s2)CN(CC(=O)N2CCN(C4CCC4)CC2)CC3)cc1 [Compound 375, ethyl 4-{5-[2-(4-cyclobutylpiperazin-1-yl)-2-oxoethyl]-4,5,6,7-tetrahydro[1,3]thiazolo [5,4-c]pyridin-2-yl}benzoate]"
14,< 1000,"CCOC(=O)c1cccc(-c2nc3c(s2)CN(CC(=O)N2CCN(C4CCC4)CC2)CC3)c1 [Compound 376, ethyl 3-{5-[2-(4-cyclobutylpiperazin-1-yl)-2-oxoethyl]-4,5,6,7-tetrahydro[1,3]thiazolo [5,4-c]pyridin-2-yl}benzoate]"
15,< 1000,"O=C(CN1CCc2cc(-c3ccc4c(c3)OCO4)ccc2C1)N1CCN(C2CCC2)CC1 [Compound 377, 6-(1,3-benzodioxol-5-yl)-2-[2-(4-cyclobutylpiperazin-1-yl)-2-oxoethyl]-1,2,3,4-tetrahydroisoquinoline]"
16,< 1000,"O=C(CN1CCc2cc(-c3ccc4c(c3)OCO4)ccc2C1)N1CCN(C2CCCC2)CC1 [Compound 378, 6-(1,3-benzodioxol-5-yl)-2-[2-(4-cyclopentylpiperazin-1-yl)-2-oxoethyl]-1,2,3,4-tetrahydroisoquinoline]"
